# Results reported in ChEMBL document CHEMBL1139666, “Discovery and synthesis of a novel series of quinoline-based thrombin receptor (PAR-1) antagonists” (Bioorg Med Chem Lett, 2006).
# Active and inactive are the calls of the source. No cut-off for these calls is given here.
# Columns and labels:
# [1] = molecular target: T1, Proteinase-activated receptor 1 (Homo sapiens, UniProt P25116); experiment: Displacement of [3H]haTRAP from PAR1 in human platelet membrane; format: cell membranes
# T1 sequence (P25116 whole entry): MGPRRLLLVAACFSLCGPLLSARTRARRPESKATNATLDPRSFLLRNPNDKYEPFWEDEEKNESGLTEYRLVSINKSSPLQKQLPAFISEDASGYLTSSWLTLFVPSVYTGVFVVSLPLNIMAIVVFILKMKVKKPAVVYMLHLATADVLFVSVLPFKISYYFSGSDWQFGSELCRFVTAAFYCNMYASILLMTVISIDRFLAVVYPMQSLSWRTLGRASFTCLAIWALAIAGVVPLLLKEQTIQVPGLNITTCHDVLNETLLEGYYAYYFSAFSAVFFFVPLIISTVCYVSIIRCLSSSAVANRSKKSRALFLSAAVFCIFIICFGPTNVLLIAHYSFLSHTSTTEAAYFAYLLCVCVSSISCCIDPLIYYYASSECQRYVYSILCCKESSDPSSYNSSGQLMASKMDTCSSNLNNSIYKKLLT
# [2] = molecular target: T1, Proteinase-activated receptor 1; experiment: Displacement of [3H]haTRAP from PAR1 in human platelet membrane at […]; format: cell membranes
# [3] = AUC(0-4h) in cynomolgus monkey at 10 mg/kg; format: ADME, organism-based, Macaca fascicularis; parameters: time < 5 hr, dose 10 mg/kg; conditions: plasma
# [4] = tested on: Cynomolgus monkey; experiment: Inhibition of platelet aggregation in cynomolgus monkey 2 hrs post dose iv; format: functional, organism-based; conditions: Macaca fascicularis
# [5] = tested on: Cynomolgus monkey; experiment: Inhibition of platelet aggregation in orally dosed cynomolgus monkey; format: functional, organism-based; conditions: Macaca fascicularis
Structure (SMILES),IC50 [1],other results
Cc1cccc2ccc(/C=C/[C@H]3[C@@H]4CCCC[C@H]4C[C@H]4C(=O)O[C@H](C)[C@@H]34)nc12 (racemic),0.39 µM,
C[C@H]1OC(=O)[C@@H]2C[C@@H]3CCCC[C@H]3[C@H](/C=C/c3ccc4cc(OCC(=O)N5CCOCC5)ccc4n3)[C@H]12,0.5 µM,
COc1ccc2nc(/C=C/[C@H]3[C@@H]4CCCC[C@H]4C[C@H]4C(=O)O[C@H](C)[C@@H]34)ccc2c1Cl (racemic),0.8 µM,
C[C@H]1OC(=O)[C@@H]2C[C@@H]3CCCC[C@H]3[C@H](/C=C/c3ccc4cc(OC(C)(C)C(N)=O)ccc4n3)[C@H]12,0.8 µM,
C[C@H]1OC(=O)[C@@H]2C[C@@H]3CCCC[C@H]3[C@H](/C=C/c3ccc4cc(F)ccc4n3)[C@H]12 (racemic),0.73 µM,
C[C@H]1OC(=O)[C@@H]2C[C@@H]3CCCC[C@H]3[C@H](/C=C/c3ccc4cc(OCCN)ccc4n3)[C@H]12 (racemic),,IC50 [2]: Not Active
C[C@H]1OC(=O)[C@@H]2C[C@@H]3CCCC[C@H]3[C@H](/C=C/c3ccc4cc(-c5cccs5)ccc4n3)[C@H]12,0.3 µM,
C[C@H]1OC(=O)[C@@H]2C[C@@H]3CCCC[C@H]3[C@H](/C=C/c3ccc4cc(NC(=O)C(C)(C)C)ccc4n3)[C@H]12,2.15 µM,
C[C@H]1OC(=O)[C@@H]2C[C@@H]3CCCC[C@H]3[C@H](/C=C/c3ccc4cc(OCc5ccccc5)ccc4n3)[C@H]12,1.25 µM,
C[C@H]1OC(=O)[C@@H]2C[C@@H]3CCCC[C@H]3[C@H](/C=C/c3ccc4cc(OC(F)(F)F)ccc4n3)[C@H]12,,IC50 [2]: Not Active
C[C@H]1OC(=O)[C@@H]2C[C@@H]3CCCC[C@H]3[C@H](/C=C/c3cc(OCc4ccccc4)c4ccccc4n3)[C@H]12 (racemic),,IC50 [2]: Not Active
COc1cc(/C=C/[C@H]2[C@@H]3CCCC[C@H]3C[C@H]3C(=O)O[C@H](C)[C@@H]23)nc2ccccc12 (racemic),,IC50 [2]: Not Active
COc1cccc2ccc(/C=C/[C@H]3[C@@H]4CCCC[C@H]4C[C@H]4C(=O)O[C@H](C)[C@@H]34)nc12 (racemic),0.7 µM,
C[C@H]1OC(=O)[C@@H]2C[C@@H]3CCCC[C@H]3[C@H](/C=C/c3ccc4cc(OC(C)(C)C(=O)Nc5ccccc5)ccc4n3)[C@H]12,0.5 µM,
C[C@H]1OC(=O)[C@@H]2C[C@@H]3CCCC[C@H]3[C@H](/C=C/c3ccc4cc(OCC(N)=O)ccc4n3)[C@H]12,1 µM,
C[C@H]1OC(=O)[C@@H]2C[C@@H]3CCCC[C@H]3[C@H](/C=C/c3ccc4cc(-c5cccc(C(F)(F)F)c5)ccc4n3)[C@H]12,0.3 µM,

# The remaining compounds from weak to strong by IC50 [1], led by results:
IC50 [1],Structure (SMILES),other results
0.29 µM,C[C@H]1OC(=O)[C@@H]2C[C@@H]3CCCC[C@H]3[C@H](/C=C/c3ccc4cc(OCC(=O)NC5CC5)ccc4n3)[C@H]12,
0.275 µM,C[C@H]1OC(=O)[C@@H]2C[C@@H]3CCCC[C@H]3[C@H](/C=C/c3ccc4cc(OCCNC(=O)OC(C)(C)C)ccc4n3)[C@H]12 (racemic),
0.219 µM,C[C@H]1OC(=O)[C@@H]2C[C@@H]3CCCC[C@H]3[C@H](/C=C/c3ccc4cc(NC(=O)c5ccccc5)ccc4n3)[C@H]12,
0.155 µM,C[C@H]1OC(=O)[C@@H]2C[C@@H]3CCCC[C@H]3[C@H](/C=C/c3ccc4cc(Cl)ccc4n3)[C@H]12 (racemic),
0.15 µM,Cc1ccc2ccc(/C=C/[C@H]3[C@@H]4CCCC[C@H]4C[C@H]4C(=O)O[C@H](C)[C@@H]34)nc2c1 (racemic),
0.125 µM,CCOc1ccc2nc(/C=C/[C@H]3[C@@H]4CCCC[C@H]4C[C@H]4C(=O)O[C@H](C)[C@@H]34)ccc2c1 (racemic),
0.1 µM,CC(=O)Nc1ccc2nc(/C=C/[C@H]3[C@@H]4CCCC[C@H]4C[C@H]4C(=O)O[C@H](C)[C@@H]34)ccc2c1,
0.068 µM,CCC(=O)Nc1ccc2nc(/C=C/[C@H]3[C@@H]4CCCC[C@H]4C[C@H]4C(=O)O[C@H](C)[C@@H]34)ccc2c1,
0.05 µM,C[C@H]1OC(=O)[C@@H]2C[C@@H]3CCCC[C@H]3[C@H](/C=C/c3ccc4cc(-c5ccsc5)ccc4n3)[C@H]12,
0.05 µM,COc1ccc2nc(/C=C/[C@H]3[C@@H]4CCCC[C@H]4C[C@H]4C(=O)O[C@H](C)[C@@H]34)ccc2c1OC,
0.03 µM,C[C@H]1OC(=O)[C@@H]2C[C@@H]3CCCC[C@H]3[C@H](/C=C/c3ccc4cc(N)ccc4n3)[C@H]12,
0.029 µM,C[C@H]1OC(=O)[C@@H]2C[C@@H]3CCCC[C@H]3[C@H](/C=C/c3ccc4cc(OCC(=O)O)ccc4n3)[C@H]12,inhibition [4]: Active; inhibition [5]: inactive; AUC(0-t) at 5 h [3]: 0.017 µg·h/mL
0.028 µM,CCCC(=O)Nc1ccc2nc(/C=C/[C@H]3[C@@H]4CCCC[C@H]4C[C@H]4C(=O)O[C@H](C)[C@@H]34)ccc2c1,
0.025 µM,C[C@H]1OC(=O)[C@@H]2C[C@@H]3CCCC[C@H]3[C@H](/C=C/c3ccc4cc(OCC(=O)Nc5ccccc5)ccc4n3)[C@H]12,
0.0063 µM,C[C@H]1OC(=O)[C@@H]2C[C@@H]3CCCC[C@H]3[C@H](/C=C/c3ccc4cc(O)ccc4n3)[C@H]12,AUC(0-t) at 5 h [3]: 0.826 µg·h/mL
